Patent US10647700B2, “EZH2 inhibitor and use thereof” (TARAPEUTICS SCIENCE INC., priority 2017, dated 2020)
pIC50: −log10 of the molar value.

Key:
EZH2 = EZH2 (Homo sapiens (Human), UniProt Q15910); assay: E-cadherin promoter luciferase reporter gene primary screening in 293T cells; format: cell-based; conditions: 293T cells treated for 24 hours, Dual-Glo luciferase
Source text: EZH2 suppresses the expression of downstream E-cadherin, and upon EZH2 suppression, expression of E-cadherin will increase. Based on such principle, a reporter gene expression vector was constructed using luciferase.
The amplified fragments after PCR and the PGL4.1 vector (purchased from TAKARA, Japan) were respectively subjected to enzyme digestion with SacI and BglII (purchased from TAKARA, Japan), and then purified with PCR cleanup kit (Axygen PCR cleanup kit). Subsequently, the purified and enzyme-digested PCR products was ligated to the purified and enzyme-digested PGL4.1 vector using ligase solution I (DNA Ligation Kit Ver.2.1, purchased from TAKARA, Japan), and subjected to transformation. Single clones were then screened out and subjected to sequencing, and the obtained positive plasmid containing promoter fragments of Ecadherin was named E-cadherin RE-PGL4.1.
Meanwhile, a Renilla fluorescent vector was constructed using PCDNA4.1 (purchased from Thermofisher, USA) as the template to amplify the fragment of CMV promoter. After enzymatic digestion of the amplified CMV sequences and pGL4.70 vector (purchased from Promega, USA) with KpnI and XhoI (purchased from Promega, USA), purification was conducted with PCR cleanup kit (Axygen PCR cleanup kit). Then the enzyme-digested PCR product was ligated to the enzyme-digested PGL4.70 vector using ligase solution I (DNA Ligation Kit Ver.2.1, purchased from TAKARA, Japan) and the resultant was subjected to transformation. Subsequently single clones were screened and subjected to sequencing, and the obtained plasmid that contained CMV sequence was named as Plasmid Renilla luciferase-pGL4.70. Said plasmid utilized CMV promoter to achieve high expression of Renilla luciferase, which served as the control fluorescence for the primary screening system.
The cells were firstly added with 20 μL Dual-Glo® Luciferase Assay Reagent, then incubated under room temperature for 10 minutes, and read on microplate reader Spectramax i3 (Molecular Devices, USA) to obtain the data of primary screening, which is shown in Table 1.

[1] = tested on: H3K27m3 methylation in Pfeiffer cells; assay: Western Blot of H3K27m3 methylation in Pfeiffer cells; format: cell-based; conditions: for IC50: Homo sapiens, 72 hours treatment, H3K27m3 methylation by Western Blot
Procedure: Meanwhile, the inventors further conducted Western Blot with Pfeiffer cells (purchased from ATCC, USA) for verification. […] Effect of compounds on H3K27m3 methylation in cells was assessed.

[2] = target: PRC2 protein complex comprising EZH2(Y641F) (Homo sapiens (Human), UniProt Q15910, Y641F); assay: EZH2(Y641F) TR-FRET enzymatic activity assay; conditions: for activity compared with control compounds in the assay using a TR-FRET kit: versus GSK126 and EPZ6438
Chain of PRC2 protein complex comprising EZH2(Y641F) (Q15910 whole entry Y641F): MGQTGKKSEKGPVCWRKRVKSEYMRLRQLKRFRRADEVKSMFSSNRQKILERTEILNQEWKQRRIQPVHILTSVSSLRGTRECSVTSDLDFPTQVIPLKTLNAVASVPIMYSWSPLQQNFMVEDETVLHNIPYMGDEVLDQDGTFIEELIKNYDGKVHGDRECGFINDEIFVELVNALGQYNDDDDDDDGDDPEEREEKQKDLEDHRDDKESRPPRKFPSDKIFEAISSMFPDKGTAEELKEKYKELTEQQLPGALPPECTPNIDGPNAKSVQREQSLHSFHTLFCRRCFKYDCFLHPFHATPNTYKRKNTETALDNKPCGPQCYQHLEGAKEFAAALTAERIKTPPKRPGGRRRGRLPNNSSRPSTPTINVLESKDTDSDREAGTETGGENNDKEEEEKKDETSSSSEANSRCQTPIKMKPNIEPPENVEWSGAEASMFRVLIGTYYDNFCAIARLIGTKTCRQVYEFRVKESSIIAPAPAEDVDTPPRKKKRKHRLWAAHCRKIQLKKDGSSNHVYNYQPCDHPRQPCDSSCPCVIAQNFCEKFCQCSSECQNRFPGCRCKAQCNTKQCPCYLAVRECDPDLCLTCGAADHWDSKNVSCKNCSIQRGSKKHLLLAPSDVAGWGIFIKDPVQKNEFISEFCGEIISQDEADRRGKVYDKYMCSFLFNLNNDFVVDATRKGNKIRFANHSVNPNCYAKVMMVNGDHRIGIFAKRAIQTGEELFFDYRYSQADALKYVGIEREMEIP
Chain of PRC2 protein complex comprising EZH2(Y641F) (O75530 whole entry partner): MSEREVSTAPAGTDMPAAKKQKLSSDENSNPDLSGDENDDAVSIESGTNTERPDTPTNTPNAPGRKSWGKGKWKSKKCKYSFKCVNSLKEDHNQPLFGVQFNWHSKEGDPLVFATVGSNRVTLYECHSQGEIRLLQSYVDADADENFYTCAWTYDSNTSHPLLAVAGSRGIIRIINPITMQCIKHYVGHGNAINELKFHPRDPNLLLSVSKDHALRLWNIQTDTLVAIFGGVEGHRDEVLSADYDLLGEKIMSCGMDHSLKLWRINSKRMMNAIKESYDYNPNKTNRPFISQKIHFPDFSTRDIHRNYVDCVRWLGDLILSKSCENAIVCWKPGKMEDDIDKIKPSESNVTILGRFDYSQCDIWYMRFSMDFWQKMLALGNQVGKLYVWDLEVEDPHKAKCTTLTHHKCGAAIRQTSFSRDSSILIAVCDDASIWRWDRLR
Chain of PRC2 protein complex comprising EZH2(Y641F) (Q15022 whole entry partner): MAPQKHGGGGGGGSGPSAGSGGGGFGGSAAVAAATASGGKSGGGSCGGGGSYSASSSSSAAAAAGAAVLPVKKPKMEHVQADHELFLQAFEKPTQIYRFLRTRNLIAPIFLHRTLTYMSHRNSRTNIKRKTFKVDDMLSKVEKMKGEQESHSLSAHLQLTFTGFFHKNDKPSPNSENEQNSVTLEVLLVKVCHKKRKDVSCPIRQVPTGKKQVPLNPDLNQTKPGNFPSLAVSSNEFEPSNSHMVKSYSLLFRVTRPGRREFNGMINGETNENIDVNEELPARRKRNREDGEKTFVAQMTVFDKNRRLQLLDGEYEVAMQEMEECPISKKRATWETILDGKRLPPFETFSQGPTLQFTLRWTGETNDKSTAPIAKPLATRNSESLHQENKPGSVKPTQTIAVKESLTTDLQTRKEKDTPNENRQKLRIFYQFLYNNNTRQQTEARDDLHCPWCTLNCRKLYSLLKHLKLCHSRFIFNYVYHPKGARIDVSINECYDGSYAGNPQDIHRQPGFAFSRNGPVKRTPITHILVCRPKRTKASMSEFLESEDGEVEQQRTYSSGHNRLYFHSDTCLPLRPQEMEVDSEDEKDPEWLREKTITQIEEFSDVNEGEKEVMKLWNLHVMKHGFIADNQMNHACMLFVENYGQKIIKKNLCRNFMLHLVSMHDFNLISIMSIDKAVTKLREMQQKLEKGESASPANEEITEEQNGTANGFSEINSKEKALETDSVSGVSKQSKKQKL
Chain of PRC2 protein complex comprising EZH2(Y641F) (Q09028 whole entry partner): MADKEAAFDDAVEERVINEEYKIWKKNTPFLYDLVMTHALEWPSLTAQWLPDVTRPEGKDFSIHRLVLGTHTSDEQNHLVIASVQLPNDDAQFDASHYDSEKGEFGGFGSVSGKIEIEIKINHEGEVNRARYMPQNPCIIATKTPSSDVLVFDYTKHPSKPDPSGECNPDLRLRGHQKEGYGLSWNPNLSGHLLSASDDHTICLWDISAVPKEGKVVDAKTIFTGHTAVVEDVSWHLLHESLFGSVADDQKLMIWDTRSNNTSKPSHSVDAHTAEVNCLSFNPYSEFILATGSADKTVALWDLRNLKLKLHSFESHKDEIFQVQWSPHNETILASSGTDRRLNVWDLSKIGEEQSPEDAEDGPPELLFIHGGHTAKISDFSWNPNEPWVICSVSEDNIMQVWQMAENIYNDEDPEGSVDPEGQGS
Chain of PRC2 protein complex comprising EZH2(Y641F) (Q6ZN18 whole entry partner): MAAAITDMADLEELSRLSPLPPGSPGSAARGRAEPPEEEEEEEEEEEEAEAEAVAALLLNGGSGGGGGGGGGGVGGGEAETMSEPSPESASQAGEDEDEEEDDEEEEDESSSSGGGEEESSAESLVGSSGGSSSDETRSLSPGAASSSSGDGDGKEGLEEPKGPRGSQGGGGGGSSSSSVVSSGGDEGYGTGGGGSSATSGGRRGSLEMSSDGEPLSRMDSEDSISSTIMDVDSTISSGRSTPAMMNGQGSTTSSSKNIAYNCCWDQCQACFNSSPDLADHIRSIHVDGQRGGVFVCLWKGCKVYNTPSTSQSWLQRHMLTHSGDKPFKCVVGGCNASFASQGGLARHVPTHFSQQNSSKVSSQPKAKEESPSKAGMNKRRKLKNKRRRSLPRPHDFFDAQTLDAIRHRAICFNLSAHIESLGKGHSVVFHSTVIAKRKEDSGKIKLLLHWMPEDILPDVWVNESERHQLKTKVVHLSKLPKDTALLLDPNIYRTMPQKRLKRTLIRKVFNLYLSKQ
Procedure: Subsequently 5 μL of the assay antibody, H3K27me3-Eu(K)Ab (purchased from cisbio bioassays, USA, #61 KC3KAE) and 5 μL Streptavidin-XL665 (purchased from cisbio bioassays, USA, #610SAXLA), were added and incubated for 1 hour at room temperature.

Chain of EZH2 (Q15910 whole entry): as the sequence (Q15910 whole entry Y641F) above, with F641Y counted along it
Chain of EZH2 (O75530 whole entry partner): as the sequence (O75530 whole entry partner) above
Chain of EZH2 (Q15022 whole entry partner): as the sequence (Q15022 whole entry partner) above
Chain of EZH2 (Q09028 whole entry partner): as the sequence (Q09028 whole entry partner) above

1 μM relative fluorescence intensity (EZH2; compound 1 μM)	10 μM relative fluorescence intensity (EZH2; compound 10 μM)	IC50 [1] [µM]	pIC50 [2]	SMILES	activity compared with control compounds in the assay using a TR-FRET kit [2]	effect compared with control compounds in Western Blot verification on cells ([1]; versus EPZ6438 and GSK126)
116.28	228.14	0.063	7.23	CCN(C(=O)C1CCCC1)c1cc(-c2ccc(CN3CCNCC3)cc2)cc(C(=O)NCc2c(C)cc(C)[nH]c2=O)c1C [Compound 25, N-((4,6-dimethyl-2-oxo-1,2-dihydropyridin-3-yl)methyl)-5-(N-ethylcyclopentanecarboxamido)-4-methyl-4′-((4-piperazin-1-yl)methyl)-4-methyl-[1,1′-diphenyl]-3-carboxamide]	superior activity than control compounds GSK126 and EPZ6438	–
–	–	0.024	7.54	CCN(C(=O)C1CC1)c1cc(-c2ccc(OCCCN3CCOCC3)c(F)c2)cc(C(=O)NCc2c(C)cc(C)[nH]c2=O)c1C [Compound 65, N-((4,6-dimethyl-2-oxo-1,2-dihydropyridin-3-yl)methyl)-5-(N-ethylcyclopropanecarboxamido)-3′-fluoro-4-methyl-4′-(3-morpholinopropoxy)-[1,1′-diphenyl]-3-carboxamide]	superior activity than control compounds GSK126 and EPZ6438	superior effects than control compounds EPZ6438 and GSK126
–	–	0.041	–	CCN(C(=O)C1CC1)c1cc(-c2cnc(N3CCN(CC4CC4)CC3)cc2C)cc(C(=O)NCc2c(C)cc(C)[nH]c2=O)c1C [Compound 71, 5-(6-(4-(cyclopropylmethyl)piperazin-1-yl)-4-methylpyridin-3-yl)-N-((4,6-dimethyl-2-oxo-1,2-dihydropyridin-3-yl)methyl)-3-(N-ethylcyclopropanecarboxamido)-2-methylbenzamide]	superior activity than control compounds GSK126 and EPZ6438	–
–	–	0.093	7.64	CCN(C(=O)C1CC1)c1cc(-c2ccc(OCCN3CCOCC3)c(F)c2)cc(C(=O)NCc2c(C)cc(C)[nH]c2=O)c1C [Compound 74, N-((4,6-dimethyl-2-oxo-1,2-dihydropyridin-3-yl)methyl)-5-(N-ethylcyclopropanecarboxamido)-3′-fluoro-4-methyl-4′-(2-morpholinoethoxyl)-[1,1′-diphenyl]-3-carboxamide]	superior activity than control compounds GSK126 and EPZ6438	–
